Data reported in ChEMBL document CHEMBL5608212, “N-acylbenzimidazoles as selective Acylators of the catalytic cystein of the coronavirus 3CL protease” (Eur J Med Chem, 2024).
Where “and” joins values, the source holds several entries; their conditions need not be identical. Identical values can stand only once.

molecular target: Replicase polyprotein 1ab (Severe acute respiratory syndrome coronavirus 2, UniProt P0DTD1); experiment: Inhibition of SARS-CoV-2 3CLpro using Dabcyl-KTSAVLQSGFRKM-Glu(Edans) as substrate preincubated for 1 hrs in presence of 2 mM GSH followed by substrate addition and measured after 30 mins by FRET assay; details: read-out: IC50

SMILES	IC50
Cc1ccc(C(=O)n2cnc3ccccc32)cc1	6700 nM and 6660 nM
CSc1nc2ccc(F)cc2n1C(=O)c1ccc(C)cc1	200 nM
Cc1ccc(C(=O)n2c(C)nc3ccccc32)cc1F	150 nM
CSc1nc2ccccc2n1C(=O)c1ccsc1	2400 nM
COc1ccc(C(=O)n2c(SC)nc3ccccc32)cc1	3000 nM
CSc1nc2cc(F)ccc2n1C(=O)c1ccc(C)c(F)c1	100 nM
CSc1nc2ccccc2n1C(=O)c1ccc(C(F)(F)F)cc1	2720 nM
CSc1nc2ccccc2n1C(=O)c1ccc(F)cc1	3800 nM
Cc1ccc(C(=O)n2c(C)nc3ccccc32)cc1	3430 nM
CSc1nc2cc(F)ccc2n1C(=O)c1ccc(C)cc1	270 nM
CSc1nc2ccc(C#N)cc2n1C(=O)c1ccc(C)c(F)c1	6300 nM
CSc1nc2ccccc2n1C(=O)c1ccc(C)c(C)c1	1000 nM
COc1cc(C(=O)n2c(SC)nc3ccccc32)ccc1C	660 nM
CSc1nc2ccccc2n1C(=O)c1ccc(Cl)cc1	1100 nM
CCc1ccc(C(=O)n2c(SC)nc3ccccc32)cc1	1800 nM
CSc1nc2cc(Cl)ccc2n1C(=O)c1ccc(C)cc1	550 nM
CCSc1nc2ccccc2n1C(=O)c1ccc(C)cc1	3760 nM
COc1cc2nc(SC)n(C(=O)c3ccc(C)cc3)c2cc1OC	6800 nM
CSc1nc2ccccc2n1C(=O)c1cccc(C(F)(F)F)c1	33700 nM
C=CCSc1nc2ccccc2n1C(=O)c1ccc(C)cc1	5440 nM
CSc1nc2ccc(F)cc2n1C(=O)c1ccc(C)c(F)c1	260 nM
CCc1nc2ccccc2n1C(=O)c1ccc(C)cc1	6550 nM
CSc1nc2ccc(Cl)cc2n1C(=O)c1ccc(C)cc1	890 nM
CSc1nc2ccccc2n1C(=O)c1ccc2c(c1)OCCO2	1000 nM
CSc1nc2ccccc2n1C(=O)c1ccc(C)c(Cl)c1	150 nM

same assay, conditions: read-out: pIC50 (converted)

SMILES	IC50
CSc1nc2ccc(Cl)cc2n1C(=O)c1ccc(C)cc1	269 nM

system: not listed separately; experiment: Inhibition of C-terminal 6-His tagged recombinant SARS-CoV 3CLpro (Ser1 to Gln306 residues) extracted from Escherichia coli using Dabcyl-KTSAVLQSGFRKM-Glu(Edans) as substrate preincubated 1 hr in presence of 2 mM GSH followed by substrate addition and measured after 30 mins by FRET assay; set-up: species or system Severe acute respiratory syndrome-related coronavirus; details: not given

SMILES	IC50	pIC50
CC(C)C[C@H](NC(=O)OCc1ccccc1)C(=O)N[C@@H](CC1CCNC1=O)C(O)S(=O)(=O)O (stereo partly drawn)	50 nM	7.33
Cc1ccc(C(=O)n2c(C)nc3ccccc32)cc1F	210 nM	6.67

molecular target: Replicase polyprotein 1ab (Human coronavirus 229E, UniProt P0C6X1); experiment: Inhibition of hCoV-229E 3CLpro using Dabcyl-KTSAVLQSGFRKM-Glu(Edans) as substrate preincubated 1 hr in presence of 2 mM GSH followed by substrate addition and measured after 30 mins by FRET assay; details: not given
Sequence (P0C6X1 2966-3267 limits assumed): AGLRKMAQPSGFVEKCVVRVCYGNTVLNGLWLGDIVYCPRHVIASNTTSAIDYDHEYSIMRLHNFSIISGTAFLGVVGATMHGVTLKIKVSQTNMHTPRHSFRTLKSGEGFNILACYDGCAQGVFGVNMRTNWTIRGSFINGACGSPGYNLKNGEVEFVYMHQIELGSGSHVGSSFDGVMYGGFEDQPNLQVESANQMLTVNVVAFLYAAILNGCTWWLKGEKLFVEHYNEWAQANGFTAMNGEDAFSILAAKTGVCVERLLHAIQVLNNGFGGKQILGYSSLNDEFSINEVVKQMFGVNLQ

SMILES	IC50
Cc1ccc(C(=O)n2c(C)nc3ccccc32)cc1F	2600 nM

system: not listed separately; experiment: Inhibition of MERS-CoV 3CLpro using Dabcyl-KTSAVLQSGFRKM-Glu(Edans) as substrate preincubated 1 hr in presence of 2 mM GSH followed by substrate addition and measured after 30 mins by FRET assay; set-up: species or system Middle East respiratory syndrome-related coronavirus; details: not given

SMILES	IC50	pIC50
CC(C)C[C@H](NC(=O)OCc1ccccc1)C(=O)N[C@@H](CC1CCNC1=O)C(O)S(=O)(=O)O (stereo partly drawn)	340 nM	6.47
Cc1ccc(C(=O)n2c(C)nc3ccccc32)cc1F	2800 nM	5.56

molecular target: T1, Calpain-1 catalytic subunit (Homo sapiens, UniProt P07384); experiment: Inhibition of human calpain 1 using (DABCYL)-TPLKSPPPSPR-(EDANS) as substrate incubated for 30 mins in presence of calcium ions and GSH and measured after 30 mins by fluorescence based assay; details: not given
T1 sequence (P07384 whole entry): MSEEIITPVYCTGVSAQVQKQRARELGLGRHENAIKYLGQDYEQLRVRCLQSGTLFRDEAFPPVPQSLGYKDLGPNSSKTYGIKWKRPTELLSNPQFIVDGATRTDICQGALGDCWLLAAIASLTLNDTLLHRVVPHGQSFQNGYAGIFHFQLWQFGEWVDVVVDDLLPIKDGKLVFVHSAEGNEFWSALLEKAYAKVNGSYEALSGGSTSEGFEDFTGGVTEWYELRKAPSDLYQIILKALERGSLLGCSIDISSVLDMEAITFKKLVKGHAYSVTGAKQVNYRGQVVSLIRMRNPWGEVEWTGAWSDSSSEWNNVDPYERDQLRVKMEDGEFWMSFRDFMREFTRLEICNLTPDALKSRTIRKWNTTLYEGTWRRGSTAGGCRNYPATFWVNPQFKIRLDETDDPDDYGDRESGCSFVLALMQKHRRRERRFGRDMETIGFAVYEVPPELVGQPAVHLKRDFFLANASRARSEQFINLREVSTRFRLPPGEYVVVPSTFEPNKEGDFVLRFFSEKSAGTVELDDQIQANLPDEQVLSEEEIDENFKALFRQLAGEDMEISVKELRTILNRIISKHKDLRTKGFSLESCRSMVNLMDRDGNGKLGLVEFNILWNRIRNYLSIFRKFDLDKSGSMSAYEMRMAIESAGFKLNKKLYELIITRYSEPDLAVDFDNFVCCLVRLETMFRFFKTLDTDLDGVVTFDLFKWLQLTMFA

SMILES	IC50
Cc1ccc(C(=O)n2c(C)nc3ccccc32)cc1F	> 100000 nM

system: not listed separately; experiment: Inhibition of human cathepsin 1 using QXL520/HiLyteFlour 488 as substrate preincubated for 60 mins and measured after 30 mins by fluorescence based assay; details: not given

SMILES	IC50
CC(C)C[C@H](NC(=O)OCc1ccccc1)C(=O)N[C@@H](CC1CCNC1=O)C(O)S(=O)(=O)O (stereo partly drawn)	1 nM
Cc1ccc(C(=O)n2c(C)nc3ccccc32)cc1F	> 100000 nM

molecular target: Replicase polyprotein 1ab (Severe acute respiratory syndrome coronavirus 2) (UniProt P0DTD1); experiment: Inhibition of SARS-CoV-2 3CLpro using Dabcyl-KTSAVLQSGFRKM-Glu(Edans) as substrate at 100 uM preincubated for 1 hrs in presence of 2 mM GSH followed by substrate addition and measured after 30 mins by FRET assay relative to control; details: time 1.5 hrs

SMILES	inhibition
Cc1ccc(C(=O)n2c(CC#N)nc3ccccc32)cc1	68%
CSc1nc2cc(C)c(C)cc2n1C(=O)c1ccc(C)cc1	68%
CSc1nc2ccccc2n1C(=O)C1CC1	61%
Cc1ccc(C(=O)n2c(Cl)nc3ccccc32)cc1	61%

system: Human coronavirus 229E; experiment: Antiviral activity against HCoV-229E expressing renilla luciferase reporter gene infected in human Huh-7 cells pre-infected […] for 1 hr followed by compound addition and measured after 6 hrs by luciferase based assay; type: functional, organism-based; details: not given

SMILES	EC50
Cc1ccc(C(=O)n2c(C)nc3ccccc32)cc1F	25400 nM
